Test results from PubChem BioAssay AID248 (DTP/NCI, 2004).
Where “and” joins values, the source holds several entries; their conditions need not be identical. Equal values may be shown once. Toxic doses and inconclusive results are not listed. Cut-off read from the data, not from the text of the source: active = T/C of 150% or more; inactive = T/C below 125%.

Test system: L1210 leukemia ip in BDF1 mice, survival T/C
Test: NCI In Vivo Anticancer Drug Screen. Data for tumor model L1210 Leukemia (intraperitoneal) in B6D2F1 (BDF1) mice
Settings: endpoint: mean survival time, higher = longer survival
Summary of the method: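 Transplanted-tumor mice were given test agent; controls received vehicle only. Survival readings from the two groups were divided (treated over control).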

[1] = dose: 100.0 mg/kg/injection, schedule: Q01DX001 (ip), vehicle: saline
[2] = dose: 200.0 mg/kg/injection, schedule: Q01DX001 (ip), vehicle: saline
[3] = dose: 400.0 mg/kg/injection, schedule: Q01DX001 (ip), vehicle: saline
[4] = dose: 100.0 mg/kg/injection, schedule: Q01DX009 (ip), vehicle: saline with Tween-80
[5] = dose: 200.0 mg/kg/injection, schedule: Q01DX009 (ip), vehicle: saline with Tween-80
[6] = dose: 400.0 mg/kg/injection, schedule: Q01DX009 (ip), vehicle: saline with Tween-80
[7] = dose: 100.0 mg/kg/injection, schedule: Q04DX003 (ip), vehicle: saline
[8] = dose: 200.0 mg/kg/injection, schedule: Q04DX003 (ip), vehicle: saline
[9] = dose: 400.0 mg/kg/injection, schedule: Q04DX003 (ip), vehicle: saline
[10] = dose: 50.0 mg/kg/injection, schedule: Q04DX003 (ip), vehicle: Klucel (hydroxypropylcellulose) (HPC)
[11] = dose: 100.0 mg/kg/injection, schedule: Q04DX003 (ip), vehicle: Klucel (hydroxypropylcellulose) (HPC)
[12] = dose: 200.0 mg/kg/injection, schedule: Q04DX003 (ip), vehicle: Klucel (hydroxypropylcellulose) (HPC)
[13] = dose: 100.0 mg/kg/injection, schedule: Q01DX009 (ip), vehicle: Klucel (hydroxypropylcellulose) (HPC)
[14] = dose: 200.0 mg/kg/injection, schedule: Q01DX009 (ip), vehicle: Klucel (hydroxypropylcellulose) (HPC)
[15] = dose: 400.0 mg/kg/injection, schedule: Q01DX009 (ip), vehicle: Klucel (hydroxypropylcellulose) (HPC)
[16] = dose: 400.0 mg/kg/injection, schedule: Q04DX003 (ip), vehicle: Klucel (hydroxypropylcellulose) (HPC)
[17] = dose: 75.0 mg/kg/injection, schedule: Q01DX001 (ip), vehicle: other
[18] = dose: 50.0 mg/kg/injection, schedule: Q01DX009 (ip), vehicle: saline with Tween-80
[19] = dose: 100.0 mg/kg/injection, schedule: Q01DX001 (ip), vehicle: Klucel (hydroxypropylcellulose) (HPC)
[20] = dose: 200.0 mg/kg/injection, schedule: Q01DX001 (ip), vehicle: Klucel (hydroxypropylcellulose) (HPC)
[21] = dose: 400.0 mg/kg/injection, schedule: Q01DX001 (ip), vehicle: Klucel (hydroxypropylcellulose) (HPC)

Measured: T/C

CC(=O)NC1C(O)OC(COC(c2ccccc2)(c2ccccc2)c2ccccc2)C(O)C1O (stereo unspecified)
inactive: [1] 91 % of control | [2] 93 % of control | [3] 104 % of control

O=C1Oc2ccccc2C(=O)Oc2ccccc2C(=O)Oc2ccccc2C(=O)Oc2ccccc21
inactive: dose: 75.0 mg/kg/injection, schedule: Q01DX001 (ip), vehicle: saline 87 % of control

Cc1ccc(S(=O)(=O)N2Cc3ccc([N+](=O)[O-])cc3C2)cc1
inactive: dose: 100.0 mg/kg/injection, schedule: Q01DX001 (ip), vehicle: carboxymethylcellulose (CMC) 100 % of control | dose: 200.0 mg/kg/injection, schedule: Q01DX001 (ip), vehicle: carboxymethylcellulose (CMC) 102 % of control | dose: 400.0 mg/kg/injection, schedule: Q01DX001 (ip), vehicle: carboxymethylcellulose (CMC) 105 % of control

CCOCc1c(COc2ccc(Br)cc2)n(CC)c2ccccc12
inactive: [4] 93 % of control | [5] 90 % of control | [6] 90 % of control

COCC(=O)C(C(C)=O)C(c1ccc2c(c1)OCO2)C(C(C)=O)C(=O)COC (stereo unspecified)
inactive: [4] 87 % of control

CCOC(=O)CNCc1cccc(Cl)c1
inactive: dose: 100.0 mg/kg/injection, schedule: Q01DX009 (ip), vehicle: saline 98 % of control | [7] 102 % of control | dose: 200.0 mg/kg/injection, schedule: Q01DX009 (ip), vehicle: saline 95 % of control | [8] 100 % of control | [9] 95 % of control

Cc1ccc(/C(=C/c2ccc([N+](=O)[O-])cc2)C(=O)Nc2ccc(S(=O)(=O)F)cc2)cc1
inactive: [4] 94 % of control | [5] 89 % of control | [6] 86 % of control

Cc1ccc(C(=O)Nc2ccc3c(c2)Cc2ccccc2-3)cc1
inactive: dose: 50.0 mg/kg/injection, schedule: Q01DX001 (ip), vehicle: saline 101 % of control | [10] 104 % of control | [1] 101 % of control | [11] 100 % of control | [2] 101 % of control | [12] 94 % of control | [3] 95 % of control

COc1ccc(N=C(C(=Nc2ccc(OC)cc2)c2ccccc2)c2ccccc2)cc1
inactive: [13] 94 % of control | [11] 96 % of control | [14] 95 % of control | [12] 95 % of control | [15] 100 % of control | [16] 95 % of control

O=C(CC(O)(C(F)(F)F)C(F)(F)F)C(Cl)C(O)(C(F)(F)F)C(F)(F)F (stereo unspecified)
inactive: dose: 25.0 mg/kg/injection, schedule: Q01DX001 (ip), vehicle: other 104 % of control | dose: 50.0 mg/kg/injection, schedule: Q01DX001 (ip), vehicle: other 86 % of control

CCN(CC)Cc1ccccc1
inactive: [17] 95 % of control

CCN(CC)COC(C)=O
inactive: [1] 103 % of control | [2] 106 % of control | [3] 106 % of control

O=C(NNC1CCN(Cc2ccccc2)CC1)c1ccccc1
inactive: dose: 10.0 mg/kg/injection, schedule: Q01DX009 (ip), vehicle: saline with Tween-80 95 % of control | dose: 10.0 mg/kg/injection, schedule: Q04DX003 (ip), vehicle: saline with Tween-80 100 % of control | dose: 20.0 mg/kg/injection, schedule: Q01DX009 (ip), vehicle: saline with Tween-80 103 % of control | dose: 20.0 mg/kg/injection, schedule: Q04DX003 (ip), vehicle: saline with Tween-80 102 % of control | dose: 40.0 mg/kg/injection, schedule: Q01DX009 (ip), vehicle: saline with Tween-80 93 % of control | dose: 40.0 mg/kg/injection, schedule: Q04DX003 (ip), vehicle: saline with Tween-80 106 % of control

[NH-]c1ccccc1C(=O)O.[NH-]c1ccccc1C(=O)O.[Ni+2]
inactive: [18] 100 % of control | [5] 105 % of control

CC(C)(C)c1cc(OCC2CO2)c(C(C)(C)C)cc1OCC1CO1 (stereo unspecified)
inactive: [1] 101 % of control | [2] 101 % of control | [3] 92 % of control

CCCCNC(=O)Nc1ccc(OC)cc1OC
inactive: [13] 101 % of control | [11] 92 % of control | [14] 96 % of control | [12] 95 % of control | [15] 118 % of control | [16] 95 % of control

CCC(CC)N(C)C(C)(C)CO
inactive: dose: 100.0 mg/kg/injection, schedule: Q04DX003 (ip), vehicle: saline sonified 90 % of control | dose: 200.0 mg/kg/injection, schedule: Q04DX003 (ip), vehicle: saline sonified 87 % of control

O=C(O)c1ccc(N=Cc2c(Cl)cccc2Cl)cc1
inactive: [13] 104 % of control | [14] 101 % of control | [15] 104 % of control

CCCCCCCCCCCCOCN1C(=O)N(COCCCCCCCCCCCC)C(=O)C(CC)(c2ccccc2)C1=O
inactive: [4] 97 % of control | [5] 94 % of control | [6] 94 % of control

O=C(O)C/C=C/c1ccccc1Br
inactive: [19] 91 % of control | [20] 101 % of control | [21] 95 % of control

CCOC(=O)c1[nH]c(C)c(CC(C(=O)OCC)C(=O)OCC)c1C
inactive: dose: 25.0 mg/kg/injection, schedule: Q04DX003 (ip), vehicle: Klucel (hydroxypropylcellulose) (HPC) 97 % of control | [10] 93 % of control | [19] 101 % of control | [11] 95 % of control | [20] 95 % of control | [21] 98 % of control

CC(O)C[P+](c1ccccc1)(c1ccccc1)c1ccccc1 (stereo unspecified)
inactive: [1] 110 % of control | [2] 96 % of control

CN(C)c1ccc(/C=N/NC(=O)c2cccc3ccccc23)c(Cl)c1
inactive: [3] 90 % of control

CC(=O)Nc1snc(C)c1[N+](=O)[O-]
inactive: [1] 107 % of control | [2] 103 % of control | [3] 103 % of control

CC1CCC(C(O)(C(=O)O)C2CCC(C)CC2)CC1 (stereo unspecified)
inactive: [17] 104 % of control | dose: 150.0 mg/kg/injection, schedule: Q01DX001 (ip), vehicle: other 104 % of control

COc1ccc(CCNC(=O)NC(C)(C)C)cc1OC
inactive: dose: 100.0 mg/kg/injection, schedule: Q04DX002 (ip), vehicle: saline with Tween-80 97 % of control | dose: 200.0 mg/kg/injection, schedule: Q04DX002 (ip), vehicle: saline with Tween-80 94 % of control | dose: 400.0 mg/kg/injection, schedule: Q04DX002 (ip), vehicle: saline with Tween-80 97 % of control

CCOC(=O)C(=O)Nc1onc(C)c1[N+](=O)[O-]
inactive: [19] 91 % of control | [13] 93 % of control | [20] 97 % of control | [14] 93 % of control | [21] 100 % of control

CCCCCCOC(=O)C[n+]1cccc(C(N)=O)c1
inactive: [7] 95 % of control

C(=N\c1oc(-c2ccccc2)nc1Sc1ccccc1)/c1ccccc1
inactive: dose: 100.0 mg/kg/injection, schedule: Q04DX002 (ip), vehicle: Klucel (hydroxypropylcellulose) (HPC) 92 % of control | dose: 200.0 mg/kg/injection, schedule: Q04DX002 (ip), vehicle: Klucel (hydroxypropylcellulose) (HPC) 100 % of control | dose: 400.0 mg/kg/injection, schedule: Q04DX002 (ip), vehicle: Klucel (hydroxypropylcellulose) (HPC) 96 % of control

C(#CCN1CCCC1)CCCN1CCCC1
inactive: dose: 25.0 mg/kg/injection, schedule: Q01DX009 (ip), vehicle: saline with Tween-80 98 % of control | dose: 25.0 mg/kg/injection, schedule: Q04DX003 (ip), vehicle: saline with Tween-80 97 % of control | [18] 102 % of control | dose: 50.0 mg/kg/injection, schedule: Q04DX003 (ip), vehicle: saline with Tween-80 97 % of control | [4] 95 % of control | dose: 100.0 mg/kg/injection, schedule: Q04DX003 (ip), vehicle: saline with Tween-80 93 % of control and 98 % of control

CCOC(=O)c1ccc(NC(=O)Nc2c(C)n(C)n(-c3ccccc3)c2=O)cc1
inactive: [1] 87 % of control | [4] 89 % of control | [7] 89 % of control | [2] 90 % of control | [5] 86 % of control | [8] 89 % of control | [3] 92 % of control | [9] 90 % of control
